We go through 1 compound from US20250082598A1, “Melafenoxate, 2-(1-adamantylamino)ethyl 2-(4-chlorophenoxy)acetate and derivatives thereof for treating circadian rhythm sleep disorders with neurodegenerative diseases such as Alzheimer's disease” (NLS Pharmaceutics AG, priority 2021, published 2025).

Test [1] has as its target RXFP4 (h) (Homo sapiens, UniProt Q8TDU9). Briefly: RXFP4 assay (Eurofins/LeadHunter, cAMP Hunter GPCR Biosensor). Format: cell-based. The protocol:
(§1) Melafenoxate is found to weakly bind with RXFP3 and RXFP4 receptors (Study FR095-0024749-Q Eurofins/leadHunter Jun. 25, 2021; unpublished data).
(§2) In these assays' compounds were tested in agonist and antagonist mode with the GPCR Biosensor Assays and match to this design:
(§3) • 1. CAMP Hunter cell lines were expanded from freezer stocks according to standard procedures. • 2. Cells were seeded in a total volume of 20 μL into white walled, 384-well microplates and incubated at 37° C. for the appropriate time prior to testing. • 3. cAMP modulation was determined using the DiscoverX HitHunter CAMP XS+assay.
(§4) • 1. For agonist determination, cells were incubated with sample to induce response. • 2. Media was aspirated from cells and replaced with 15 μL 2:1 HBSS/10 mM Hepes: CAMP XS+ Ab reagent. • 3. […]
(§5) • 1. […] Microplates were read following signal generation with a PerkinElmer Envision™ instrument for chemiluminescent signal detection.
(§6) • 1. Compound activity was analyzed using CBIS data analysis suite (ChemInnovation, CA). • 2. For Gs agonist mode assays, percentage activity is calculated using the following formula:
(§7) % Activity=100%×(mean RLU of test sample−mean RLU of vehicle control)/(mean RLU of MAX control−mean RLU of vehicle control). • 3. For Gs positive allosteric mode assays, percentage modulation is calculated using the following formula: http://www.eurofinsdiscoveryservices.com Confidential Jun. […]

The target in test [2] is T1, RXFP3 (h) (Homo sapiens, UniProt Q9NSD7).
T1 sequence (Q9NSD7 1-469): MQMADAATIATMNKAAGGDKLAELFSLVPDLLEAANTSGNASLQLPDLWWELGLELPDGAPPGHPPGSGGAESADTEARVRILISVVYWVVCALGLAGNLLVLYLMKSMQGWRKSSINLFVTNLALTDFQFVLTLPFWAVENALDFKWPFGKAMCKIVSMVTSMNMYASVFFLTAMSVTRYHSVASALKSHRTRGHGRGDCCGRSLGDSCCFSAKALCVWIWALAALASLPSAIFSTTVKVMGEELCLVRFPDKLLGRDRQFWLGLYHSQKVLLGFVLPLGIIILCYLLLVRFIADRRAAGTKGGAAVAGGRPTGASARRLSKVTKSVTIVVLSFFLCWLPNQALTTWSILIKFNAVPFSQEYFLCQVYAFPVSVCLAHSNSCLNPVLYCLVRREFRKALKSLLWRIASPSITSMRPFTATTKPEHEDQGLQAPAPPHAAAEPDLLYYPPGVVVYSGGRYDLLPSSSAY
Briefly: RXFP3 assay (Eurofins/LeadHunter, cAMP Hunter GPCR Biosensor). It is filed as cell-based. The protocol: as §1, §2, §3, §4, §5, §6, §7

Chain of RXFP4 (h) (Q8TDU9 whole entry): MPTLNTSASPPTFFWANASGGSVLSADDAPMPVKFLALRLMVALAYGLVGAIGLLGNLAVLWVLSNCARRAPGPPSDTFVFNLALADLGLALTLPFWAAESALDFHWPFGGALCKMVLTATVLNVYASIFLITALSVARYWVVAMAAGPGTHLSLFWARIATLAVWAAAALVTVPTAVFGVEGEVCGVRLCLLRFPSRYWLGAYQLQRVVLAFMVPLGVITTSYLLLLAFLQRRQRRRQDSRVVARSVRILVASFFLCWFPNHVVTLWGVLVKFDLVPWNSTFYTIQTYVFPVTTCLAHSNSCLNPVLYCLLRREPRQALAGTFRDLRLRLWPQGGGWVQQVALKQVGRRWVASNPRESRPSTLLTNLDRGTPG

The term % Inhibition denotes the share of the control response that was lost under treatment. A high value points to a strong effect. `O=C(COc1ccc(Cl)cc1)OCCNC12CC3CC(CC(C3)C1)C2` [Melafenoxate, 2-(1-adamantylamino)ethyl 2-(4-chlorophenoxy)acetate]: the “binding with RXFP4 receptor (in words)” value in test [1] is given as “weakly bind”. The results for the “% Inhibition at 5*10^−5 M” value in test [1] (5*10^−5 M) and in test [2] (5*10^−5 M) were 19.5% and 29.1%, respectively. The “binding with RXFP3 receptor (in words)” value in test [2] is on record as “weakly bind”.
